Results as given in US8884061B2, “Compositions and methods of use of electron transport system inhibitors” (priority 2006, dated 2014).
Converted amounts (≈) assume the structure as drawn.

Assays:
[1] = test system: M. tuberculosis H37Rv; assay: MIC, colorimetric microtiter plate method with Alamar blue; assay type: cell-based; conditions: Mycobacterium tuberculosis, read-out: MIC (μg/mL) M. tuberculosis
Experimental: Activity Against M. Tuberculosis
The minimum inhibitory concentration (MIC) of compounds were determined against H37Rv by a colorimetric microtiter plate based method with Alamar blue.

[2] = molecular target: MenA (Mycobacterium tuberculosis, UniProt P9WIP3); assay: In vitro assay against MenA (membrane fractions); assay type: biochemical; conditions: membrane fractions from M. tuberculosis; 5 μM farnesyl diphosphate, 50 μM dihydroxynaphthoic acid, pH 8.5; read-out: IC50 (μmol) MenA
[3] = test system: M. intracellularae ATCC 15984; assay: MIC, agar (7H11) dilution method; assay type: cell-based; conditions: read-out: Minimum inhibitory concentrations (MIC)
[4] = test system: M. tuberculosis Kurono; assay: MIC, agar (7H11) dilution method; assay type: cell-based; conditions: Mycobacterium tuberculosis; M. tuberculosis Kurono; agar (7H11) dilution; read-out: Minimum inhibitory concentrations (MIC)
[5] = test system: M. tuberculosis H37Rv; assay: MIC, agar (7H11) dilution method; assay type: cell-based; conditions: Mycobacterium tuberculosis, H37RV, M. tuberculosis H37Rv, read-out: Minimum inhibitory concentrations (MIC)
[6] = test system: M. kansasii NIHJ1619; assay: MIC, agar (7H11) dilution method; assay type: cell-based; conditions: Mycobacterium kansasii, read-out: Minimum inhibitory concentrations (MIC)
[7] = test system: M. fortuitum NIHJ1615; assay: MIC, agar (7H11) dilution method; assay type: cell-based; conditions: Mycolicibacterium fortuitum, read-out: Minimum inhibitory concentrations (MIC)
[8] = test system: M. avium Flamingo; assay: MIC, agar (7H11) dilution method; assay type: cell-based; conditions: Mycobacterium avium, read-out: Minimum inhibitory concentrations (MIC)
[9] = test system: M. smegmatis Takeo; assay: MIC, agar (7H11) dilution method; assay type: cell-based; conditions: Mycolicibacterium smegmatis, read-out: Minimum inhibitory concentrations (MIC)
[10] = test system: M. aurum; assay: MIC, agar (7H11) dilution method; assay type: cell-based; conditions: Mycolicibacterium aurum, read-out: Minimum inhibitory concentrations (MIC)
[11] = test system: M. bovis BCG Tokyo; assay: microbe, parasite or virus in culture; assay type: cell-based; conditions: Mycobacterium tuberculosis variant bovis BCG, BCG, read-out: Minimum inhibitory concentrations (MIC)

MenA, sequence (P9WIP3 whole entry): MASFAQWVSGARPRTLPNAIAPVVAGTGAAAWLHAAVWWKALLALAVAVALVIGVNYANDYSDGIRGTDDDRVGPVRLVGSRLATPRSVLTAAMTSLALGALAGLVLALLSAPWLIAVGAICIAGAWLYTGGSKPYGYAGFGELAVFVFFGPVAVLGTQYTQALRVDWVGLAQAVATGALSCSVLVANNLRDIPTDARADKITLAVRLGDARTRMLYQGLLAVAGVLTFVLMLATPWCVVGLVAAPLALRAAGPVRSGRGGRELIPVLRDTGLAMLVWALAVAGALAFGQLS

SMILES	MIC [1]	IC50 [2]	further results
C=CCN(C)CCCCCCCCOc1ccc(C(O)c2ccc(Cl)cc2)c(Cl)c1 (centres unmarked) [Cpd 10, (4-(8-(allyl(methyl)amino)octyloxy)-2-chlorophenyl)(4-chlorophenyl)methanol]	0.6 µg/mL (≈ 1.33 µM)	< 2.5 µM	
NNC(=O)c1ccncc1 [INH, isoniazid, reference compound]			MIC [3]: 12.5 µg/mL (≈ 91.1 µM); MIC [4]: 0.05 µg/mL (≈ 0.365 µM); MIC ([5]; table line r8 (2nd of 5 so labelled)): 0.1 µg/mL (≈ 0.729 µM); MIC ([5]; table line r9 (3rd of 5 so labelled)): > 25 µg/mL; MIC ([5]; table line r10 (4th of 5 so labelled)): 0.05 µg/mL (≈ 0.365 µM); MIC ([5]; table line r11 (5th of 5 so labelled)): 0.1 µg/mL (≈ 0.729 µM); MIC [6]: 12.5 µg/mL (≈ 91.1 µM); MIC [7]: 6.25 µg/mL (≈ 45.6 µM); MIC [8]: > 25 µg/mL; MIC [9]: 12.5 µg/mL (≈ 91.1 µM); MIC [10]: 6.25 µg/mL (≈ 45.6 µM); MIC [11]: 0.1 µg/mL (≈ 0.729 µM)
C=CCN(C)CCCCCCCCOc1ccc(C(O)c2ccc(Cl)cc2Cl)cc1 (centres unmarked) [Cpd 8]	5 µg/mL (≈ 11.1 µM)	12 µM	
C=CCN(C)CCCCCCCOc1ccc(C(O)c2ccc(Br)cc2)cc1 (centres unmarked) [Cpd 3]	5 µg/mL (≈ 11.2 µM)	15 µM	
C=CCN(C)CCCCCCCOc1ccc(C(=O)c2ccc(Br)cc2)cc1 [Cpd 1, (4-(7-(allyl(methyl)amino)heptyloxy)phenyl)(4-bromophenyl)methanone]	5 µg/mL (≈ 11.3 µM)	12 µM	
C=CCN(C)CCCCCCCCOc1ccc(C(O)c2ccc(Cl)cc2)cc1 (centres unmarked) [Cpd 6, (4-(8-(allyl(methyl)amino)octyloxy)phenyl)(4-chlorophenyl)methanol]	3 µg/mL (≈ 7.21 µM)	10 µM	
C=CCN(C)CCCCCCCCOc1ccc(C(=O)c2ccc(Cl)cc2)c(Cl)c1 [Cpd 9]	0.6 µg/mL (≈ 1.34 µM)	4 µM	
CN(CCCCCCCCOc1ccc(C(=O)c2ccc(Cl)cc2)c(Cl)c1)Cc1ccccc1 [Cpd 12]	12 µg/mL (≈ 24.1 µM)	13 µM	
